Results from patent US20260150874A1, “HUMAN MILK OLIGOSACCHARIDES” (SOCIETE DES PRODUITS NESTLE S.A., priority 2021, published 2026).
“Also recorded” adds a separate entry of the source.

Assays:
auditory network = assay: Association between human milk HMOs and brain functional network connection strength (rsfMRI), auditory network; assay type: in vivo, typically developing infants (human); conditions: A-tetra+ group; infants 0-20 months; human milk HMO level; quantile regression of 25th, 50th, 75th percentiles of CS; across all quantiles
Method: (§1) In this study, we leveraged the UNC/UMN Baby Connectome Project (BCP) published in Neuroimage 2019: Vol 185: 891-905, aiming to longitudinally characterize early brain development, where typically developing children from 0-5 years of age were enrolled, longitudinal resting functional MR imaging (rsfMRI) was administered at each visit. The BCP study was further supplemented by collecting breast milk samples from the mothers whose children were breast-fed at the time of study visit, to allow the determination of potential associations between HMOs and early brain functional development using rsfMRI.
(§2) 153 rsfMRI scans from 91 typically developing infants (0-20 months old) were obtained. Human milk (HM) samples were obtained from the mothers of the participants at each imaging visit and analyzed for HMOs. Brain functional network connection strengths (CS), which have been implicated to reflect brain functional maturation during early brain development, were obtained for the visual, default mode (DMN), sensorimotor, and auditory networks. Age effects for CS and HMOs were removed. Multivariate quantile regression of 25th, 50th, and 75th percentiles of CS with mixed effect was used to examine associations between HMOs and CS for all infants, and stratified by infants who received HM with detectable and undetectable A-tetra (A-tetra+and A-tetra−). […]

visual network = assay: Association between human milk HMOs and brain functional network connection strength (rsfMRI), visual network; assay type: in vivo, typically developing infants (human); conditions: A-tetra+ group; infants 0-20 months; human milk HMO level; quantile regression of 25th, 50th, 75th percentiles of CS; across all quantiles
Method: as §1, §2

CC(=O)N[C@H]1[C@H]([C@H](O)[C@H](O)CO)O[C@@](OC[C@H]2O[C@@H](O[C@H]3[C@H](O)[C@@H](O)[C@H](O)O[C@@H]3CO)[C@H](O)[C@@H](O)[C@H]2O)(C(=O)O)C[C@@H]1O [6′-SL, 6′-sialyllactose]
association between 6′-SL and auditory function (auditory resting functional networks, connection strength) (auditory network): positive associations; also recorded: significant positive association | association between 6′-SL and visual function (vision resting functional networks, connection strength) (visual network): positive associations; also recorded: significant positive association
